In ChEMBL document CHEMBL5291721, “A preclinical secondary pharmacology resource illuminates target-adverse drug reaction associations of marketed drugs” (Nat Commun, 2023):

Key:
[1] = target: T1, 5-hydroxytryptamine receptor 1A (Homo sapiens, UniProt P08908); type: functional, cell-based
T1 sequence (P08908 whole entry): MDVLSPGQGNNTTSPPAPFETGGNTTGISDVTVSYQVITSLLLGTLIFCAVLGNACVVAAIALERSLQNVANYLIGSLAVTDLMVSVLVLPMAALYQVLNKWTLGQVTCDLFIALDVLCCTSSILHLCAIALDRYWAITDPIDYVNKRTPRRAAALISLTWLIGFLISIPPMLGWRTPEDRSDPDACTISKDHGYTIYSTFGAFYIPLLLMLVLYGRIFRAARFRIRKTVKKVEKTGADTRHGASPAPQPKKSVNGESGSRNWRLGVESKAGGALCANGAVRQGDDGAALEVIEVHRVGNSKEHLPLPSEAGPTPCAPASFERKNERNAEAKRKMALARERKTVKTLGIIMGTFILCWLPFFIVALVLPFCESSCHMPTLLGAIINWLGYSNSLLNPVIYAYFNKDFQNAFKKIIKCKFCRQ

[2] = target: T2, Equilibrative nucleoside transporter 1 (Homo sapiens, UniProt Q99808)
T2 sequence (Q99808 whole entry): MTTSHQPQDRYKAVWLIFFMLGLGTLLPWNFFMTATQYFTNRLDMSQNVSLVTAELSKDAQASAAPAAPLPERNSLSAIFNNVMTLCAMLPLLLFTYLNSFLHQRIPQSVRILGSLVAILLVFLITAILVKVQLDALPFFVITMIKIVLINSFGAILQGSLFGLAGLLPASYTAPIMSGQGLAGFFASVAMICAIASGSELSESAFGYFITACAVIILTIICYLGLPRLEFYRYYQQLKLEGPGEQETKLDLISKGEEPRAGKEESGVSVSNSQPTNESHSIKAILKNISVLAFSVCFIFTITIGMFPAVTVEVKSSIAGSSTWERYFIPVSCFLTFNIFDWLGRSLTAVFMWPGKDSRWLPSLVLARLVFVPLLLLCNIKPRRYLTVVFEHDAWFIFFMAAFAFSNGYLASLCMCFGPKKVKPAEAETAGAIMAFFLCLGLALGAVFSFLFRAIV

[3] = target: Mu-type opioid receptor (Homo sapiens, UniProt P35372)
[4] = target: T3, Glucocorticoid receptor (Homo sapiens, UniProt P04150)
T3 sequence (P04150 whole entry): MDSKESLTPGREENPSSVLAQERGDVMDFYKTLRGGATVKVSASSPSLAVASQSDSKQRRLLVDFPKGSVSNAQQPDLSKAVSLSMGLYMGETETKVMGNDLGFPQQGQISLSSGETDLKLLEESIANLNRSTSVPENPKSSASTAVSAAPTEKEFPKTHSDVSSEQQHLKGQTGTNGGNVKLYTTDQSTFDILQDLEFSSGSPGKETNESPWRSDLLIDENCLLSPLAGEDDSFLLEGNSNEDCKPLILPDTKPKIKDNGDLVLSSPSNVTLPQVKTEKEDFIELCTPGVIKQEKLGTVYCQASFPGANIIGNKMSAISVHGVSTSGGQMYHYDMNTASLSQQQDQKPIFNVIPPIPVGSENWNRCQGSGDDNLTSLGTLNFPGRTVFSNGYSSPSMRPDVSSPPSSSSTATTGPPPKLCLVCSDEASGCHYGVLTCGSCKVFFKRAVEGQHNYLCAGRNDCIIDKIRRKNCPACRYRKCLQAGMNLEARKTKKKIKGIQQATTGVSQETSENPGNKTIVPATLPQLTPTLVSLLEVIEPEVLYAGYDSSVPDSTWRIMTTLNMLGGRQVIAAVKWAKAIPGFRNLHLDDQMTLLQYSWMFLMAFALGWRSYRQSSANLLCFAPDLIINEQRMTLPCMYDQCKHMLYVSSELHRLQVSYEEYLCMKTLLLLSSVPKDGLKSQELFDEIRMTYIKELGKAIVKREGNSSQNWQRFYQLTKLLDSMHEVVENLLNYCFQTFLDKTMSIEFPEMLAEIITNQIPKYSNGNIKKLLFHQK

[5] = target: D(3) dopamine receptor (Homo sapiens, UniProt P35462)
[6] = target: T4, Alpha-1A adrenergic receptor (Homo sapiens, UniProt P35348); type: functional, cell-based
T4 sequence (P35348 whole entry): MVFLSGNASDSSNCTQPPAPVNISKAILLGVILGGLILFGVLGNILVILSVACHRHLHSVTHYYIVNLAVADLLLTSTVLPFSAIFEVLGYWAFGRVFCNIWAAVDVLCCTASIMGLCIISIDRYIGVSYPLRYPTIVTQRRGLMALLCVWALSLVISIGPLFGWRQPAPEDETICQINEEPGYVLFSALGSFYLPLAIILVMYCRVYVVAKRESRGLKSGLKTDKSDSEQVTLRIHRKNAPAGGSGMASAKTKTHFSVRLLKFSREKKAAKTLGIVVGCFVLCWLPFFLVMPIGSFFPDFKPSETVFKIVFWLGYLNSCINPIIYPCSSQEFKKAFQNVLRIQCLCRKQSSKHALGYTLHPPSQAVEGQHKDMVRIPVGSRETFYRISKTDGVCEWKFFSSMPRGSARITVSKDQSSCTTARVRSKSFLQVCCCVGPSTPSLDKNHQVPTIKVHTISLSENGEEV

[7] = target: Voltage-dependent L-type calcium channel subunit alpha-1C (Rattus norvegicus, UniProt P22002); type: functional
[8] = target: T5, Prostaglandin G/H synthase 1 (Rattus norvegicus, UniProt Q63921); type: functional
T5 sequence (Q63921 whole entry): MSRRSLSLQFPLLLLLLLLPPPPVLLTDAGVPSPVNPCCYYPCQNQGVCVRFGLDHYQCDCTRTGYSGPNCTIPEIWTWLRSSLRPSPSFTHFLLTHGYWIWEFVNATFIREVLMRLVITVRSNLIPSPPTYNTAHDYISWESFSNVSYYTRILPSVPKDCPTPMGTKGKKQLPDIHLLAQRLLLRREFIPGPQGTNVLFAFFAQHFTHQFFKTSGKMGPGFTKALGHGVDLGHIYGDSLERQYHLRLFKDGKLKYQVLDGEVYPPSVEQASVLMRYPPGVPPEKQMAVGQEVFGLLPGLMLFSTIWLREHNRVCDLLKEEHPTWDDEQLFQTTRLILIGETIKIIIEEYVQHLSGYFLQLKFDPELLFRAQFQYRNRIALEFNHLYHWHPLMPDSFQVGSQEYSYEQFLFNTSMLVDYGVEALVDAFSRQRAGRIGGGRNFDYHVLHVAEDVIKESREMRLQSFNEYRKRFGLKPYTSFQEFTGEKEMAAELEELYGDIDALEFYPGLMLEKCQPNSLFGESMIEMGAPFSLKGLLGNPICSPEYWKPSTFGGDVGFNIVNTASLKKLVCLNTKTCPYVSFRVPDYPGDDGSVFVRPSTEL

[9] = target: Beta-2 adrenergic receptor (Homo sapiens, UniProt P07550)
Note: assay procedure not described here.

Mu-type opioid receptor, sequence (P35372 whole entry): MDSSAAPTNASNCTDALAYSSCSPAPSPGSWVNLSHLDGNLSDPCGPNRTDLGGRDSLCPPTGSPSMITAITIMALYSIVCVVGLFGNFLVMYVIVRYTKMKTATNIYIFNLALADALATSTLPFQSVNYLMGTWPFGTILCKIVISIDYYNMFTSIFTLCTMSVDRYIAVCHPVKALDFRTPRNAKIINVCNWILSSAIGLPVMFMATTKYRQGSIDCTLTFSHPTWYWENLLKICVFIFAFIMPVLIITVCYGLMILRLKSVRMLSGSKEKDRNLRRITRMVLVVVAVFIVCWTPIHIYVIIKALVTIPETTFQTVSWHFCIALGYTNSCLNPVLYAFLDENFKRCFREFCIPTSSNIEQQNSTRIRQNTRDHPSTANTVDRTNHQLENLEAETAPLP
Voltage-dependent L-type calcium channel subunit alpha-1C, sequence (P22002 whole entry): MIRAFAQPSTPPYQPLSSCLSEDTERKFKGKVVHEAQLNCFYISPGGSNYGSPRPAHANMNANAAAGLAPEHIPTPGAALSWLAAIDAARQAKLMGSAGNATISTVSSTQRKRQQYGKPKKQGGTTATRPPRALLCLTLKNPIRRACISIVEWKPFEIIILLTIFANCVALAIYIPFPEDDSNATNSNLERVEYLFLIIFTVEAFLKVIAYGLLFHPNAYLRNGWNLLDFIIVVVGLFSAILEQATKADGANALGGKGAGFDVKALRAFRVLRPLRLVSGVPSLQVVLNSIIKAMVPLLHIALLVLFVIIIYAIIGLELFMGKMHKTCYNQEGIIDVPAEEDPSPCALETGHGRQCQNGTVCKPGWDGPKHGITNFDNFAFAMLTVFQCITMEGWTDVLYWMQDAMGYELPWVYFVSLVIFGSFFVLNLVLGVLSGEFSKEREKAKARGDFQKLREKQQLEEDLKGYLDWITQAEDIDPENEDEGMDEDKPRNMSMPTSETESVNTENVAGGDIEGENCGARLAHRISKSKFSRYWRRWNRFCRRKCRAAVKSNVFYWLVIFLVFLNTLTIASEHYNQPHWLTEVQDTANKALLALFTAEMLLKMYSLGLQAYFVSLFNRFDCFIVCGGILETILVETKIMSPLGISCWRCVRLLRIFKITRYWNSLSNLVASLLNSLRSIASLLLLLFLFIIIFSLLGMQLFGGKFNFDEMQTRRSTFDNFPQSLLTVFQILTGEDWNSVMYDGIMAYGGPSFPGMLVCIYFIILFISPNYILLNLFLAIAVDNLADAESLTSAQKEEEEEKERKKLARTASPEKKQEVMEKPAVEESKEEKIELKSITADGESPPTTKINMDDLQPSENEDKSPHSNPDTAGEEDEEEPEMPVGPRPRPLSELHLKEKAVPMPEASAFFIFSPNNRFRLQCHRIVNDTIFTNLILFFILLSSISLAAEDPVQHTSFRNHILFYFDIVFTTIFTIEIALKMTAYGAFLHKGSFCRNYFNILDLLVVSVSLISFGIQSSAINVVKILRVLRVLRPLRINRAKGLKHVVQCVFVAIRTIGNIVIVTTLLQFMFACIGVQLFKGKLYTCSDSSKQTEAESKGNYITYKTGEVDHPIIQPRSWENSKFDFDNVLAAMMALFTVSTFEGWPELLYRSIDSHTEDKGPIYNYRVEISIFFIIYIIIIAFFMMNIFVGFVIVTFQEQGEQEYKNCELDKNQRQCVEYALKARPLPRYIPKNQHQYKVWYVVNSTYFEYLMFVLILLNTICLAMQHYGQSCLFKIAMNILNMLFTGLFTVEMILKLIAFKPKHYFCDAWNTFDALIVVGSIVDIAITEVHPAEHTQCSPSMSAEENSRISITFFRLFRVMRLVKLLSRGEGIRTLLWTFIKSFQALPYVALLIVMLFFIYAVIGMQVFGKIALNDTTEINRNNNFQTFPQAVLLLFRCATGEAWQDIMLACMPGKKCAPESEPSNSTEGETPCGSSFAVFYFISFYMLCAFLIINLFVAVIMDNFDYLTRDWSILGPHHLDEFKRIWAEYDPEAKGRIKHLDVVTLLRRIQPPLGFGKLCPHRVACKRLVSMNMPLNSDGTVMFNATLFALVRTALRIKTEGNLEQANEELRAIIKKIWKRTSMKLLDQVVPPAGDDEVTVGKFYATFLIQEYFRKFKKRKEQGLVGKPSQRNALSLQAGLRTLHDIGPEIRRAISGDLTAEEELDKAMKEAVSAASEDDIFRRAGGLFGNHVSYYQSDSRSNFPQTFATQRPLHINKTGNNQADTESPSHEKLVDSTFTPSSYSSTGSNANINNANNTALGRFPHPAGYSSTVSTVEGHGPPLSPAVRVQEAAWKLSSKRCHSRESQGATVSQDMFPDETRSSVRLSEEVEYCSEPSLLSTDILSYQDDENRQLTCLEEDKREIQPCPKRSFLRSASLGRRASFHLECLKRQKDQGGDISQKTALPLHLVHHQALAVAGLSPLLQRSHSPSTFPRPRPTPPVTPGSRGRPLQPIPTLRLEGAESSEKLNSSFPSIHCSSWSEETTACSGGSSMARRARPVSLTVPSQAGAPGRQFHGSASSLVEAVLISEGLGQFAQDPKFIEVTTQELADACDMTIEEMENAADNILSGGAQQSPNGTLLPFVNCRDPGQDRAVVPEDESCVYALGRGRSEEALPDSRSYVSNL
Beta-2 adrenergic receptor, sequence (P07550 whole entry): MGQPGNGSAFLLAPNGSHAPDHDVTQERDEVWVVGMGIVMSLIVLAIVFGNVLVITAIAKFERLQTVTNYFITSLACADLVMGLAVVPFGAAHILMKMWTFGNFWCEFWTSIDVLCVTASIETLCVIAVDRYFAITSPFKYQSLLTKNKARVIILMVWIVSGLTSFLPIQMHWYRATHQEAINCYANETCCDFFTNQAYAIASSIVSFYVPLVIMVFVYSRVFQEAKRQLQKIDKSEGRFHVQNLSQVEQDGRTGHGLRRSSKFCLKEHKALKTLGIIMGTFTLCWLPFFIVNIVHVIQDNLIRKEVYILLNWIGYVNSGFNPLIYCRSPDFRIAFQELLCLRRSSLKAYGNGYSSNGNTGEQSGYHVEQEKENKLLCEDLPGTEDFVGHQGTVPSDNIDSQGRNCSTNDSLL
D(3) dopamine receptor, sequence (P35462 whole entry): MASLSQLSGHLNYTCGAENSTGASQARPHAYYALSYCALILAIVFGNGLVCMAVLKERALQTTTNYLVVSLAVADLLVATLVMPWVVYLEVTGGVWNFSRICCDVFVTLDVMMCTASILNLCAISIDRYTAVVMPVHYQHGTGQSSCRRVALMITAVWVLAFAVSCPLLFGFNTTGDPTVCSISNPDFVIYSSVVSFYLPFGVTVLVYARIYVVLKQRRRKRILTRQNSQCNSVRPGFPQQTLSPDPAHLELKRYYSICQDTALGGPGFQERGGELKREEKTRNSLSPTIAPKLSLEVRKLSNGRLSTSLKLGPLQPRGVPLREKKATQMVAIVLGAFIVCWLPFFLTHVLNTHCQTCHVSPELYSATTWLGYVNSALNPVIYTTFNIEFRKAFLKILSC

Structure (SMILES)	AC50 [1] [µM]	AC50 [2] [µM]	AC50 [3] [µM]	AC50 [4] [µM]	AC50 [5] [µM]	AC50 [6] [µM]	AC50 [7] [µM]	AC50 [8] [µM]	AC50 [9] [µM]
O=C1CN=C(c2ccccc2Cl)c2cc([N+](=O)[O-])ccc2N1 [CLONAZEPAM]	> 10	> 30	> 30	> 30	> 10	> 30	> 10	> 30	> 10
CN1C(=O)CN=C(c2ccccc2F)c2cc([N+](=O)[O-])ccc21 [FLUNITRAZEPAM]	> 10	> 30	> 10	> 30	> 30	> 30	> 10	> 30	> 10
COc1ccc(C(Cl)=C(c2ccc(OC)cc2)c2ccc(OC)cc2)cc1 [CHLOROTRIANISENE]	> 30	> 30	> 30	> 30	> 30	> 30	> 10	0.259	> 10
C[C@@H](Cc1ccccc1)N(C)Cc1ccccc1 [BENZPHETAMINE]	> 10	> 30	> 30	> 10	> 30	> 30	> 10	> 10	> 10
CC(=O)[C@@]1(O)CC[C@H]2[C@@H]3C[C@H](C)C4=CC(=O)C=C[C@]4(C)[C@@]3(F)[C@@H](O)C[C@@]21C [FLUOROMETHOLONE]	> 10	> 10	> 30	0.004	> 30	> 30	> 10	> 10	> 10
CC(C)(N)Cc1ccccc1 [PHENTERMINE]	> 10	> 30	> 30	> 30	> 30	> 30	> 10	> 30	> 10
CCN(CC)CCCN(c1ccccc1)C1Cc2ccccc2C1 [APRINDINE]	> 30	> 30	19	> 30	3.15	> 30	> 10	> 30	> 10
N=C(N)NC(=O)Cc1c(Cl)cccc1Cl [GUANFACINE]	5.4	> 30	> 30	> 30	20	0.0245	> 30	> 30	> 10
CCOC(=O)C1=C(C)NC(C)=C(C(=O)OC)C1c1cccc(Cl)c1Cl (stereo not drawn) [FELODIPINE]	> 10	28	> 10	9.94	–	> 30	0.0204	> 30	> 10
Nc1cc(N2CCCCC2)nc(N)[n+]1[O-] [MINOXIDIL]	> 30	–	> 30	> 30	> 30	> 30	> 10	> 30	> 30
CN1CCC(=C2c3ccccc3CC(=O)c3sccc32)CC1 [KETOTIFEN]	> 10	> 10	> 30	> 10	3	> 30	> 10	> 10	> 10
C=C(c1ccccc1OCc1cccc(Cl)c1)n1ccnc1 [CROCONAZOLE]	> 10	> 30	> 30	3.46	> 30	> 30	18.8	21.1	> 30
CC(C)CN(C[C@@H](O)[C@H](Cc1ccccc1)NC(=O)O[C@H]1CCOC1)S(=O)(=O)c1ccc(N)cc1	> 10	> 10	> 30	> 10	> 30	> 30	> 10	> 10	> 10
Cc1nnc2n1-c1ccc(Cl)cc1C(c1ccccc1)=NC2 [ALPRAZOLAM]	> 10	> 30	> 30	> 30	> 10	> 30	> 10	> 30	> 10
CC(NC(C)(C)C)C(=O)c1cccc(Cl)c1 (stereo not drawn) [BUPROPION]	> 10	> 30	> 10	> 30	> 10	> 30	> 10	–	> 10
O=C(C[S+]([O-])Cc1ccco1)NC/C=C\COc1cc(CN2CCCCC2)ccn1 (stereo not drawn) [LAFUTIDINE]	> 30	> 10	> 30	> 10	> 30	> 30	> 10	> 10	> 10
CC1=C(CC(=O)O)c2cc(F)ccc2/C1=C\c1ccc([S+](C)[O-])cc1 (stereo not drawn)	> 10	> 30	> 30	> 30	> 30	> 30	> 10	> 30	> 10
Oc1cc(O)c2c(c1)O[C@H](c1ccc(O)c(O)c1)[C@@H](O)C2 [CIANIDANOL]	> 10	> 30	> 30	> 30	> 30	> 30	> 10	–	> 10
